Results from patent publication US20220340665A1, “INHIBITOR AGAINST EXPRESSION OF IMMUNE CHECKPOINT MOLECULE” (RENASCIENCE INC., priority 2019, published 2022).
Entries after “also recorded” stand apart in the source; their conditions may differ.

What was measured:
[1] = system: mouse leukemia cell line (32Dp210); assay: PD-L1 expression level by flow cytometry in 32Dp210 cells (Experimental Examples 2 and 3); assay type: cell-based; details: inhibitor 50 μM with rPAI-1 40 nM, 2 days, listed as PAI-1 inhibitor
Description: In order to analyze the characteristics of cancer cells highly expressing PAI-1, a rouse leukemia cell line (obtained by transfecting 32D cells, i.e., a myelomonocytic progenitor cell line, with BCR-ABL; referred to below as “32Dp210”) was transfected with PAI-1 to produce cells overexpressing PAI-1 (32d PAI-1 OE). Next, in order to analyze the expression level of PD-L1, which is an ICM, in the cells, the cells were stained with an anti-PD-L1 antibody (clone name: 10F.G92) labeled with Allophycocyanin (APC) as a fluorescent dye, and subjected to flow cytometry. As a comparative control experiment, a 32Dp210 cell line without transfection of PAI-1 (wild-type cells: 32D WT) was analyzed in the same manner for the PD-L1 expression level.
Specifically, artificially produced recombinant PAI-1 (referred to below as “rPAI-1”; 40 nM) or a culture supernatant of the cells overexpressing PAI-1 (32d PAI-1 OE) prepared in Experimental Example 1 (PAI-1 OE sup; containing a high concentration of PAI-1) was added to 5×10^4 cells of a mouse leukemia cell line (32Dp210), and the cells were cultured on a 96-well plate at 37° C., 5% CO2, for 2 days. Next, the PD-L1 expression level was determined by flow cytometry in the same manner as in Experimental Example 1. As a comparative control experiment, the PD-L1 expression level in untreated mouse leukemia cells (control) was measured in the same manner. […]

[2] = system: mouse colorectal cancer cell line (MC38); assay: PD-L1 expression level by flow cytometry in MC38 cells (Experimental Example 3); assay type: cell-based; details: inhibitor 50 μM with rPAI-1 40 nM, 2 days, listed as PAI-1 inhibitor
Protocol: Next, the PD-L1 expression level was determined by flow cytometry in the same manner as in Experimental Example 1.
Likewise, a mouse colorectal cancer cell line (MC38) and a mouse malignant melanoma cell line (B16F10) were also tested in the same manner, instead of the mouse leukemia cell line (32Dp210).

[3] = system: mouse leukemia cell line (32Dp210); assay: PD-L1 expression in leukemic cells of mice transplanted with 32Dp210 (Experimental Example 5); assay type: in vivo, mice (C3H/HEJ); details: peripheral blood, 10 mg/kg orally once daily, 7 days, vs vehicle, listed as PAI-1 inhibitor
Protocol: Specifically, 5×10^5 cells of a mouse leukemia cell line (32Dp210) were transplanted into mice (C3H/HEJ), and engraftment was confirmed one week later. Subsequently, the PAI-1 inhibitor was orally administered once daily at 10 mg/kg for a total of 7 days. On the next day of the final administration, the peripheral blood or the spleen was collected from the mice. The spleen was mechanically dispersed by grinding through nylon mesh. The peripheral blood and spleen cells were independently hemolyzed with an ammonium chloride solution and then stained with an anti-PD-L1 antibody (clone name: 10F.G92) labeled with Allophycocyanin (APC) to determine the PD-L1 expression level in the leukemic cells with a flow cytometer. As a comparative control experiment, instead of the PAI-1 inhibitor, only physiological saline (vehicle) was administered to the mice transplanted with the mouse leukemia cell line, and the PD-L1 expression level in the leukemic cells was determined with a flow cytometer in the same manner as described above.

[4] = system: mouse leukemia cell line (32Dp210); assay: Size of subcutaneous 32Dp210 tumor mass in mice (Experimental Example 10); assay type: in vivo, mice (C3H/HEJ); details: 32Dp210 subcutaneous, 10 mg/kg orally once daily, 7 days, n=2, listed as PAI-1 inhibitor
Protocol: Specifically, 5×10^5 cells of a mouse leukemia cell line (32Dp210) were transplanted subcutaneously in mice (C3H/HEJ), and one week later, engraftment of more than 5 mm of a tumor mass in the major axis was confirmed. Subsequently, the PAI-1 inhibitor was orally administered once daily at 10 mg/kg for a total of 7 days. On the next day of the final administration, the size of the tumor mass ([…]) was measured. As a comparative control experiment, the size of the tumor mass was measured in the same manner in terms of a mouse group to which only physiological saline (vehicle) was orally administered instead of the PAI-1 inhibitor.

[5] = system: mouse colorectal cancer cell line (MC38); assay: Size of subcutaneous MC38 tumor mass in mice (Experimental Example 11); assay type: in vivo, mice (C57BL6); details: PAI-1 inhibitor 10 mg/kg orally daily 14 days, anti-PD1 antibody 15 μg i.p. every 3 days, 3 times, 14 and 21 days
Description: Mice (C57BL6) were divided into 1) an untreated group (vehicle) (n=15), 2) a single-administration group of anti-PD1 antibody (anti-PD-1 Ab), 3) a single-administration group of PAI-1 inhibitor (PAI-1 inhibitor), and 4) a combination group of anti-PD1 antibody and PAI-1 inhibitor (anti-PD-1 Ab+PAI-1 inhibitor) (n=18 for 2) to 4)). Then, 5×10^5 cells of the mouse colorectal cancer cell line (MC38) were transplanted subcutaneously into each mouse. One week after transplantation, engraftment of more than 5 mm of a tumor mass in the major axis was confirmed. Subsequently, the PAI-1 inhibitor (10 mg/kg) was orally administered once daily to groups 3) and 4) above for a total of 14 consecutive days. For groups 2) and 4), 15 μg of anti-PD1 antibody was intraperitoneally administered every 3 days (3 times in total) from the same day as the administration day of the PAI-1 inhibitor. For the untreated group, physiological saline was orally administered. The size of the tumor mass was measured 2 weeks (14 days) and 3 weeks (21 days) after the transplantation (0 days).

CD8+ T cells = assay: Cytotoxic T cells in MC38 tumor mass by flow cytometry (Experimental Example 16); assay type: in vivo, mice (C57BL6); details: oral administration for one week, vs vehicle
Description: 1) The untreated group and 3) the single-administration group of PAI-1 inhibitor (cancer-bearing mice) of Experimental Example 11, after tumor engraftment, were orally administered with physiological saline (vehicle) or the PAI-1 inhibitor for one week. Thereafter, the tumor was collected, the T cells were stained with an anti-CD45 antibody, an anti-CD3 antibody, an anti-CD4 antibody, an anti-CD8 antibody, and an anti-perforin antibody, and the percentage of cytotoxic T cells in the tumor mass was determined with a flow cytometer.

[6] = non-clinical and clinical studies (JP2020-088416A); cited from earlier work
human PAI-1 = human PAI-1 (Homo sapiens, UniProt P05121); assay: PAI-1 inhibitory activity, t-PA with Spectrozyme t-PA chromogenic substrate (Reference Experimental Example 2); assay type: biochemical; set-up: purchased Molecular Innovations, Inc. (USA); details: system without compound after 120 minutes = 100%
human PAI-1, sequence (P05121 24-402): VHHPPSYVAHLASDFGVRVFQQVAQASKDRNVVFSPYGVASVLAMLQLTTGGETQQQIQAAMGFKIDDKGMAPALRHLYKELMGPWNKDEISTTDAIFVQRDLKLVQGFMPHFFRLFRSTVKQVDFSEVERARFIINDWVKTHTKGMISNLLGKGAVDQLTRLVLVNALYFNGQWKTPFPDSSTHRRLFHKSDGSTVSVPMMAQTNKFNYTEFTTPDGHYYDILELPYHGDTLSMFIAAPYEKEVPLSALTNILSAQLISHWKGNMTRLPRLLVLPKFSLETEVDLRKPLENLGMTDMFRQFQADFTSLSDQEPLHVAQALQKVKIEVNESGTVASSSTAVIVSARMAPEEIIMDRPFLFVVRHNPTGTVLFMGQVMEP
Protocol: Subsequently, human-derived tissue plasminogen activator (t-PA) (manufactured by American Diagnostica, Inc. (USA); the same applies hereinafter) adjusted to 0.05 pmol/μL was added thereto, and the mixture was further incubated at 37° C. for 60 minutes. Then, 0.25 mM of Spectrozyme t-PA synthetic substrate (manufactured by American Diagnostica, Inc. (USA); the same applies hereinafter), which is a chromogenic substrate, was added. […]
Free p-nitroaniline removed from the chromogenic substrate (Spectrozyme t-PA) by t-PA action was measured using a spectrophotometer at an absorbance of 405 nm at 20-minute intervals, for 120 minutes.

PAI-1 activity % (human PAI-1; compound 10 μm (head)): 2.1%
PAI-1 activity % (human PAI-1; compound 25 μm (head)): 2.4%
SMILES: O=C(Nc1ccc(Cl)cc1C(=O)[O-])c1cccc(-c2cccc3cccnc23)c1.[Na+] [Example 68, 5-chloro-2-(((3-(quinolin-8-yl)phenyl)carbonyl)amino)sodium benzoate]
PD-L1 expression induction by rPAI-1 [1]: completely inhibited the induction; also recorded: completely suppressed
PD-L1 expression induction by rPAI-1 [2]: completely inhibited the induction; also recorded: the same results as those of the leukemia cells
PD-L1 expression level in leukemia cells [3]: reduced PD-L1 expression level; also recorded: lower PD-L1 expression level
size of the tumor mass [4]: tumor mass disappearance; also recorded: loss of tumor mass
size of the tumor mass [5]: significantly regressed; also recorded: tumor regression
percentage of intratumoral infiltration of CD8+ T cells (effector T cells) (CD8+ T cells): increased
safety by oral administration [6]: no safety issues
